In patent US10681909B2, “Herbicidal triazoles” (FMC Corporation, priority 2014, dated 2020):

Legend:
galium [1] = test: Test C preemergence; format: in vivo, Galium aparine; details: for Plant response rating (scale of 0 to 100 where 0 is no effect and 100 is complete control): Galium, preemergence; for Galium plant response rating (0 to 100): Preemergence, visual rating after 13 to 15 d
Source text: (§1) Seeds of plant species selected from blackgrass (Alopecurus myosuroides), ryegrass, Italian (Italian ryegrass, Lolium multiflorum), wheat (winter wheat, Triticum aestivum), galium (catchweed bedstraw, Galium aparine), corn (Zea mays), crabgrass, large (large crabgrass, Digitaria sanguinalis), foxtail, giant, (giant foxtail, Setaria faberii), johnsongrass (Sorghum halepense), lambsquarters (Chenopodium album), morningglory (Ipomoea coccinea), nutsedge, yellow (yellow nutsedge, Cyperus esculentus), pigweed (Amaranthus retroflexus), ragweed (common ragweed, Ambrosia elatior), soybean (Glycine max), barnyardgrass (Echinochloa crus-galli), oilseed rape (Brassica napus), waterhemp (common waterhemp, Amaranthus rudis), and velvetleaf (Abutilon theophrasti) were planted into a blend of loam soil and sand and treated preemergence with test chemicals formulated in a non-phytotoxic solvent mixture which included a surfactant. At the same time, plants selected from these crop and weed species and also chickweed (common chickweed, Stellaria media), oat, wild (wild oat, Avena fatua), and kochia (Kochia scoparia), were planted in pots containing Sunshine Redi-Earth® planting medium comprising spaghnum peat moss, vermiculite, starter nutrients and dolomitic limestone and treated with postemergence applications of test chemicals formulated in the same manner. Plants ranged in height from 2 to 18 cm (1- to 4-leaf stage) for postemergence treatments. […] A dash (-) response means no test result.

speedwell = test: Test D preemergence; format: in vivo, Veronica persica; details: for Plant response rating: Speedwell: scale 0 to 100
Source text: (§2) Seeds of plant species selected from bluegrass (annual bluegrass, Poa annua), blackgrass (Alopecurus myosuroides), canarygrass (Phalaris minor), chickweed (common chickweed, Stellaria media), galium (catchweed bedstraw, Galium aparine), bromegrass, down (downy bromegrass, Bromus tectorum), Russian thistle (Salsola kali), field poppy (Papaver rhoeas), field violet (Viola arvensis), foxtail, green (green foxtail, Setaria viridis), deadnettle (henbit deadnettle, Lamium amplexicaule), ryegrass, Ital. (Italian ryegrass, Lolium multiflorum), kochia (Kochia scoparia), lambsquarters (Chenopodium album), oilseed rape (Brassica napus), pigweed (Amaranthus retroflexus), chamomile (scentless chamomile, Matricaria inodora), speedwell (bird's-eye speedwell, Veronica persica), barley, spring (spring barley, Hordeum vulgare), wheat, spring (spring wheat, Triticum aestivum), buckwheat, wild (wild buckwheat, Polygonum convolvulus), wild mustard (Sinapis arvensis), oat, wild (wild oat, Avena fatua), radish, wild (wild radish, Raphanus raphanistrum), […]), barley, winter (winter barley, Hordeum vulgare), and wheat, winter (winter wheat, Triticum aestivum) were planted into a silt loam soil and treated preemergence with test chemicals formulated in a non-phytotoxic solvent mixture which included a surfactant. At the same time, these species were planted in pots containing Sunshine Redi-Earth® planting medium comprising spaghnum peat moss, vermiculite, starter nutrients and dolomitic limestone and treated with postemergence applications of the test chemicals formulated in the same manner. Plants ranged in height from 2 to 18 cm (1- to 4-leaf stage). Treated plants and controls were maintained in a controlled growth environment for 14 to 21 d after which time all species were compared to controls and visually evaluated. […] A dash (-) response means no test result.

morningglory = test: Test C preemergence; format: in vivo, Ipomoea coccinea; details: for Plant response rating (scale of 0 to 100 where 0 is no effect and 100 is complete control): Morningglory, preemergence; for Morningglory plant response rating (0 to 100): Preemergence, visual rating after 13 to 15 d
Source text: as §1

foxtail, green = test: Test D postemergence; format: in vivo, Setaria viridis; details: scale 0 to 100
Source text: as §2

chickweed = test: Test D postemergence; format: in vivo, Stellaria media; details: scale 0 to 100
Source text: as §2

bluegrass = test: Test D postemergence; format: in vivo, Poa annua; details: scale 0 to 100
Source text: as §2

barley, spring = test: Test D postemergence; format: in vivo, Hordeum vulgare; details: scale 0 to 100
Source text: as §2

barley, winter = test: Test D postemergence; format: in vivo, Hordeum vulgare; details: scale 0 to 100
Source text: as §2

galium [2] = test: Test D preemergence; format: in vivo, Galium aparine; details: for Plant response rating: Galium: scale 0 to 100
Source text: as §2

chamomile = test: Test D preemergence; format: in vivo, Matricaria inodora; details: for Plant response rating: Chamomile: scale 0 to 100
Source text: as §2

pigweed = test: Test C preemergence; format: in vivo, Amaranthus retroflexus; details: for Plant response rating (scale of 0 to 100 where 0 is no effect and 100 is complete control): Pigweed, preemergence; for Pigweed plant response rating (0 to 100): Preemergence, visual rating after 13 to 15 d
Source text: as §1

bromegrass, down = test: Test D postemergence; format: in vivo, Bromus tectorum; details: scale 0 to 100
Source text: as §2

[3] = 16 g ai/ha, 0 is no effect, 100 is complete control

FC(F)(F)COc1nc(-c2ccccc2)nn1Cc1ccnc(C(F)(F)F)c1 [Compound 24]
Plant response rating (scale of 0 to 100 where 0 is no effect and 100 is complete control) (galium [1]; 125 g ai/ha): 50
Plant response rating (scale of 0 to 100 where 0 is no effect and 100 is complete control) (galium [1]; 250 g ai/ha): 90
Galium plant response rating (0 to 100) (galium [1]; 31 g ai/ha): 5
Galium plant response rating (0 to 100) (galium [1]; 62 g ai/ha): 30
Plant response rating (0 to 100), Speedwell (speedwell; [3]): 80
Plant response rating: Speedwell (speedwell; 62 g ai/ha): 100
Plant response rating: Speedwell (speedwell; 125 g ai/ha): 100
Plant response rating (scale of 0 to 100 where 0 is no effect and 100 is complete control) (morningglory; 125 g ai/ha): 35
Plant response rating (scale of 0 to 100 where 0 is no effect and 100 is complete control) (morningglory; 250 g ai/ha): 40
Morningglory plant response rating (0 to 100) (morningglory; 31 g ai/ha): 10
Morningglory plant response rating (0 to 100) (morningglory; 62 g ai/ha): 30
Plant response rating: Foxtail, Green (foxtail, green; 16 g ai/ha): 15
Plant response rating: Foxtail, Green (foxtail, green; 31 g ai/ha): 25
Plant response rating: Foxtail, Green (foxtail, green; 62 g ai/ha): 65
Plant response rating: Foxtail, Green (foxtail, green; 125 g ai/ha): 65
Plant response rating: Chickweed (chickweed; 16 g ai/ha): 55
Plant response rating: Chickweed (chickweed; 31 g ai/ha): 60
Plant response rating: Chickweed (chickweed; 62 g ai/ha): 70
Plant response rating: Chickweed (chickweed; 125 g ai/ha): 90
Plant response rating: Bluegrass (bluegrass; 16 g ai/ha): 15
Plant response rating: Bluegrass (bluegrass; 31 g ai/ha): 35
Plant response rating: Bluegrass (bluegrass; 62 g ai/ha): 60
Plant response rating: Bluegrass (bluegrass; 125 g ai/ha): 70
Plant response rating: Barley, Spring (barley, spring; 16 g ai/ha): 20
Plant response rating: Barley, Spring (barley, spring; 31 g ai/ha): 25
Plant response rating: Barley, Spring (barley, spring; 62 g ai/ha): 30
Plant response rating: Barley, Spring (barley, spring; 125 g ai/ha): 35
Plant response rating: Barley, Winter (barley, winter; 16 g ai/ha): 15
Plant response rating: Barley, Winter (barley, winter; 31 g ai/ha): 15
Plant response rating: Barley, Winter (barley, winter; 62 g ai/ha): 25
Plant response rating: Barley, Winter (barley, winter; 125 g ai/ha): 25
Plant response rating (0 to 100), Galium (galium [2]; [3]): 55
Plant response rating: Galium (galium [2]; 62 g ai/ha): 65
Plant response rating: Galium (galium [2]; 125 g ai/ha): 75
Plant response rating (0 to 100), Chamomile (chamomile; [3]): 0
Plant response rating: Chamomile (chamomile; 31 g ai/ha): 35
Plant response rating: Chamomile (chamomile; 62 g ai/ha): 85
Plant response rating: Chamomile (chamomile; 125 g ai/ha): 90
Plant response rating (scale of 0 to 100 where 0 is no effect and 100 is complete control) (pigweed; 125 g ai/ha): 100
Plant response rating (scale of 0 to 100 where 0 is no effect and 100 is complete control) (pigweed; 250 g ai/ha): 100
Pigweed plant response rating (0 to 100) (pigweed; 31 g ai/ha): 100
Pigweed plant response rating (0 to 100) (pigweed; 62 g ai/ha): 100
Plant response rating: Bromegrass, Down (bromegrass, down; 16 g ai/ha): 25
Plant response rating: Bromegrass, Down (bromegrass, down; 31 g ai/ha): 40
Plant response rating: Bromegrass, Down (bromegrass, down; 62 g ai/ha): 45
Plant response rating: Bromegrass, Down (bromegrass, down; 125 g ai/ha): 50
